Legend:
[1] = system: HepG2/C3A, HCT-116 and Kasumi-1 cells; assay: μCCA viability of three cell lines, 5-FU alone vs 5-FU plus uracil (uracil as modulator)
Experimental: The device was assembled by sandwiching a cell culture chamber layer and a fluidic channel layer between an aluminum bottom frame and a PLEXIGLAS® top frame. A silicone gasket and a polycarbonate base were added to ensure better sealing. […] The device was placed on a rocking platform, set to change direction at approximately every 3 min.
(§2) The whole system was placed inside a cell culture incubator with 5% CO2. After a specified amount of time, the device was dissembled and cells were retrieved by dissolving the alginate in a dissolving buffer (55 mM sodium citrate, 30 mM EDTA, 0.15M NaCl) for 30 min at 37° C., or from […] ® by dissolving in DPBS with 5 mM EDTA solution at 4° C. Cell viability was determined by Trypan-blue exclusion assay using a hemocytometer. At least triplicates were done for each data point.
The effect of uracil as a modulator of 5-FU toxicity was tested by comparing the responses of cells to 5-FU plus uracil and 5-FU alone. […] Cells were also encapsulated in a different hydrogel, […] ®, in a μCCA.

[2] = system: dihydropyrimidine dehydrogenase (DPD); details: PK model parameter; calculated from rate of metabolism in a rat and reported liver protein content and cell number; cited from earlier work
[3] = previous clinical findings; cited from earlier work
HCT-116 [4] = assay: Toxicity in three-chamber μCCA (dynamic conditions), Trypan-blue viability, PK-PD model fit; details: three days
Experimental: (§3) The device was placed on a rocking platform, set to change direction at approximately every 3 min.
as §2
(§4) An integrated PK-PD model was developed by constructing a PK and PD model separately, and then combining the two. A PK model has the same layout of compartments as a μCCA device. A PD model is integrated into each compartment, describing the kinetics of cell death in each organ. To construct a PK model for a μCCA, mass balance equations describing the flow in, flow out, and metabolism were set up for each compartment, and the ordinary differential equations (ODEs) were solved numerically. Solving the equations required several parameters, such as physiological parameters (flow rate and size of chambers) and enzyme kinetic parameters for the metabolism of 5-FU and uracil, which are summarized in Table 1. […]

HepG2/C3A [5] = assay: as above; details: both static and dynamic conditions; lower Kmax or higher KC50
Experimental: as §3, §2, §4

Kasumi-1 [6] = assay: as above; details: three days
Experimental: as §3, §2, §4

Kasumi-1 [7] = assay: Toxicity experiment in static conditions, hydrogel-encapsulated cells, Trypan-blue viability, PD model fit; assay type: cell-based; details: Homo sapiens, Kasumi 1, 72 h, 5-FU 0, 0.1, 0.2, 0.5 mM, three days, read-out: KC50 (drug concentration where half of the maximum rate is observed), fitted PD parameter
Experimental: (§1) For static condition experiment, the same silicone gaskets were prepared on a glass slide, similar to the μCCA. Cells were seeded into the holes, encapsulated in hydrogel, and […] of cell culture medium were placed on top. This volume is same as the volume of medium placed in the reservoir of a μCCA. Therefore, cells in static conditions are essentially the same as the cells in a μCCA, except that the device was not assembled with the channel layer, and cells were immersed in liquid medium. Cell viability was assessed using the same method as a μCCA.

HepG2/C3A [8] = assay: as above; assay type: cell-based; details: three days
Experimental: as §1

HCT-116 [9] = assay: as above; assay type: cell-based; details: Homo sapiens, HCT-116, 72 h, 5-FU 0, 0.1, 0.2, 0.5 mM, three days, read-out: KC50 (drug concentration where half of the maximum rate is observed), fitted PD parameter
Experimental: as §1

Compound	Sensitivity of cells to 5-FU in dynamic conditions versus static conditions [1]	Maximum rate of metabolism (Vm) [2]	Dose-limiting toxicity [3]	Sensitivity to 5-FU treatment compared with hepatoma (HepG2/C3A) cell line (HCT-116 [4])	Resistance to 5-FU compared with other two cell types (HepG2/C3A [5])	Sensitivity to 5-FU treatment compared with hepatoma (HepG2/C3A) cell line (Kasumi-1 [6])	EC50 (Kasumi-1 [7])	EC50 (HepG2/C3A [8]; HepG2/C3A, 72 h, 5-FU 0, 0.1, 0.2, 0.5 mM, read-out: KC50 (drug concentration where half of the maximum rate is observed), fitted PD parameter)	Drop in viability compared with other cell types (HepG2/C3A [8])	EC50 (HCT-116 [9])
O=c1[nH]cc(F)c(=O)[nH]1 [5-FU, 5-fluorouracil]	more sensitive	2385 nmol/min/mL	hematological toxicity	much more sensitive	most resistant	much more sensitive	7.41 mM	5.52 mM	slower drop in the viability	8.61 mM
O=c1cc[nH]c(=O)[nH]1 [uracil]		1695 nmol/min/mL								

— patent US8748180B2, “Microfluidic device for pharmacokinetic-pharmacodynamic study of drugs and uses thereof” (Cornell University, priority 2009, dated 2014)
